Data from patent publication US4895589A, “Heterocyclic compounds” (Imperial Chemical Industries PLC, priority 1985, dated 1990).
Like-named read-outs stand apart in the source and are kept apart here.

Experiments:
Wheat [1] = test: Whole Plant Screen (2), wheat; format: in vivo, Wheat (Timmo); conditions: WW, 4000 ppm, side-by-side, Table XIII
How it was run: (§1)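 Foliar spray at 4000 ppm (4 kg/ha in 1000 l/ha) by tracksprayer at the listed leaf stage. Plants grown in glasshouse at 25° C. day/22° C. night, 16° C./13° C. for wheat, 16 h photoperiod. Morphology visually assessed after 2-6 weeks against formulation blanks.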

Cynosurus cristatus = conditions: CC, 4000 ppm, 2-3 weeks
Protocol: (§3) The compounds were tested for plant growth regulator activity against up to tweleve plant species for various growth effects relevant to plant growth regulation.
(§4) After spray, the plants were grown in a glasshouse with 25° C. day/22° C. night temperatures and supplementary lighting was supplied when necessary (from mercury vapour lamps), to provide a 16 hour photoperiod. The exception to this were the temperate cereals, wheat and barley, which were grown in 16° C. day 13° C. night temperatures
(§5) After 2-3 weeks in the glasshouse, depending on the time of year, the plants were visually assessed for morphological characteristics. Formulations blanks were used as controls to assess the Plants.

Dacrylis glomerata = conditions: DA, 4000 ppm, 2-3 weeks
[2] = test system: plant species of Whole Plant Screen (1) or (2); test: Across screen comparison: total retardation relative to paclobutrazol (Whole Plant Screens (1) and (2)); format: in vivo; conditions: compounds of Table I, Table X
How it was run: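 Compounds, each tested in Whole Plant Screen (1) or (2), are compared by summing retardation scores over all species tested. Each total is expressed as a percentage of the total retardation from paclobutrazol, the standard run in every test.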

Apple = test: Whole Plant Screen (2), apple; format: in vivo, Apple (Red Delicious); conditions: AP, 4000 ppm, side-by-side, Table XIII
Protocol: After 2-6 weeks in the glasshouse, depending on the time of year, the plants were visually assessed for morphological characteristics. Formulation blanks were used as controls to assess the plants.
Compound numbers 1, 5 and 7 (of the present invention) were tested against compounds A, B, C and D (compound Nos. 12, 2, 24 and 50 of Table 1 EP No. 0052424) on whole plant screen (2). The compounds were tested of plant growth regulator activity against five species and for various growth effects relevant to plant growth regulation. The structures are set out in FIG. 1.
The plant species used in this screen are presented in Table XII with the leaf stage at which they were sprayed Each chemical was applied at 4000 ppm (4 kg/ha in a 1000 l/ha field volume) using a tracksprayer and a SS8004E (Teejet) nozzle. […]

Soya = conditions: SY, 4000 ppm, 2-3 weeks
Protocol: as §3, §4, §5

Apples = test: Intermediate Retardant Test, apples; format: in vivo, Apples (Red Delicious); conditions: 672 h, ~28 days, read-out: Percentage Reduction in Height of Apples (Compared to formulation blank)
How it was run: (§2)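 Percentage height reduction relative to the formulation blank, assessed about 28 days post-treatment as height to top-most ligule (rice, spring barley) or to apex (apples). Compounds sprayed overall at 1000 and 4000 ppm (1 and 4 kg ha^-1 in 1000 l/ha), covering root and foliar uptake; rice grown immersed in paddy pots.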

Rice [3] = test: Whole Plant Screen (2), rice; format: in vivo, Rice (Ishikari); conditions: RC, 4000 ppm, side-by-side, Table XIII
How it was run: as §1

Barley = conditions: BR, 4000 ppm, 2-3 weeks
Sugar beet = conditions: SB, 4000 ppm, 2-3 weeks
Protocol: as §3, §4, §5

Spring Barley = test: Intermediate Retardant Test, spring barley; format: in vivo, Spring Barley (Atem/kym); conditions: Hordeum vulgare, 672 h, ~28 days, read-out: Percentage Reduction in Height of Spring Barley (Compared to formulation blank)
How it was run: as §2

Rice [4] = test: Intermediate Retardant Test, rice; format: in vivo, Rice (Ishikari); conditions: Oryza sativa, 672 h, ~28 days, read-out: Percentage Reduction in Height of Rice (Compared to formulation blank)
How it was run: as §2

Agrostis tenius = conditions: AT, 4000 ppm, 2-3 weeks
Protocol: as §3, §4, §5

Wheat [5] = conditions: WW, 4000 ppm, 2-3 weeks

Structure (SMILES) | T = Tillering or side shooting (Wheat [1]) | Retardation score (1-3) with greening (G), apical damage (A), tillering/side shooting (T) (Cynosurus cristatus) [G] | Retardation score (1-3) with greening (G), apical damage (A), tillering/side shooting (T) (Dacrylis glomerata) [G] | Total Retardation expressed as a percentage of the total retardation caused by paclobutrazol [2] | G = Greening effect (Apple) | Retardation score (1-3) with greening (G), apical damage (A), tillering/side shooting (T) (Soya) | percent reduction in plant height vs formulation blank at 1000 ppm (Apples; side-by-side, Table XVII) [%] | percent reduction in plant height vs formulation blank at 4000 ppm (Apples; Table IX) [%] | percent reduction in plant height vs formulation blank at 4000 ppm (Apples; side-by-side, Table XVII) [%] | G = Greening effect (Rice [3]) | I = Interligular or internodal length reduction (Rice [3]) | R = Retardation (Rice [3]) | T = Tillering or side shooting (Rice [3]) | Retardation score (1-3) with greening (G), apical damage (A), tillering/side shooting (T) (Barley) | Retardation score (1-3) with greening (G), apical damage (A), tillering/side shooting (T) (Sugar beet) [G] | height reduction vs blank at 1000 ppm (Spring Barley; Table VIII) [%] | height reduction vs blank at 1000 ppm (Spring Barley; side-by-side, Table XV) [%] | height reduction vs blank at 4000 ppm (Spring Barley; Table VIII) [%] | height reduction vs blank at 4000 ppm (Spring Barley; side-by-side, Table XV) [%] | Percent reduction in rice plant height vs formulation blank at 1000 ppm (Rice [4]; Table VII) [%] | further results
CCCCC#CC(O)(Cn1cncn1)C(C)(C)C (stereo not shown) [Compound 1, 2,2-dimethyl-3-hydroxy-3-(hex-1-yne-1-yl)-4-(1,2,4-triazol-1-yl)-butane] | 1 (10-30%) | 2 | 2 | 84.0 % of paclobutrazol | 1 (10-30%) | 1G | 0 | 51.6 | 41 | 2 (31-60%) | 3 (61-100%) | 2 (31-60%) | 3 (61-100%) | 3T | 1 | 32.3 | 28 | 60.7 | 62 | 24.6 | Percent reduction in rice plant height vs formulation blank at 1000 ppm (Rice [4]; side-by-side, Table XVI): 31%; Percent reduction in rice plant height vs formulation blank at 4000 ppm (Rice [4]; Table VII): 49.9%; Percent reduction in rice plant height vs formulation blank at 4000 ppm (Rice [4]; side-by-side, Table XVI): 53%; Retardation score (1-3) with greening (G), apical damage (A), tillering/side shooting (T) (Agrostis tenius): 3G; Retardation score (1-3) with greening (G), apical damage (A), tillering/side shooting (T) (Wheat [5]): 3T
CC(C)CC#CC(O)(Cn1cncn1)C(C)(C)C (stereo not shown) [Compound 7, 2,2-dimethyl-3-hydroxy-3-(4-methyl-pent-1-yne-1-yl)-4-(1,2,4-triazol-1-yl)-butane] | 1 (10-30%) | 2 | 1 | 58.6 % of paclobutrazol | 1 (10-30%) | 3GAT | 30 | 31 | 60 | 1 (10-30%) | 3 (61-100%) | 2 (31-60%) | 3 (61-100%) | 2GT | 1 | 33 | 20 | 75.4 | 51 | 11.1 | G = Greening effect (Wheat [1]): 1 (10-30%); percent reduction in plant height vs formulation blank at 1000 ppm (Apples; Table IX): 15%; Percent reduction in rice plant height vs formulation blank at 1000 ppm (Rice [4]; side-by-side, Table XVI): 27%; Percent reduction in rice plant height vs formulation blank at 4000 ppm (Rice [4]; Table VII): 26%; Percent reduction in rice plant height vs formulation blank at 4000 ppm (Rice [4]; side-by-side, Table XVI): 53%; Retardation score (1-3) with greening (G), apical damage (A), tillering/side shooting (T) (Agrostis tenius): 2G; Retardation score (1-3) with greening (G), apical damage (A), tillering/side shooting (T) (Wheat [5]): 3GT
